Results published in patent US6297266A, “Thiazole derivatives” (Hoffmann-La Roche Inc., priority 1998, dated 2001).

biological target: T1, vitronectin receptor αvβ3 (Homo sapiens, UniProt P05106+P06756); assay: inhibition of the binding of fibrinogen to vitronectin receptor αvβ3 (ELISA); conditions: fibrinogen binding to immobilized αvβ3 from human placenta, pH 7.4, read-out: VNR IC50
T1 construct: Human placenta is stored at -80° C. immediately after its excision; from tissue; host or cells: human placenta
Procedure: The inhibition of the binding of adhesive proteins such as e.g. fibrinogen to vitronectin receptors (such as e.g. αvβ3, αvβ5, αvβ6, αvβ8, etc. or to the fibrinogen receptor (αIIbβ3) by compounds of formula (I) can be determined as described by L. Alig et al. (J.Med.Chem. 1992, 35, 4393-4407).
In detail thereto, the wells of microtiter plates (Nunc-Immunoplate MaxiSorp) were coated overnight at 4° C. with the vitronectin receptor αvβ3 (from human placenta, 100 μl/well) in a buffer system with 150 mmol/1 NaCl, 1 mmol/CaCl2, 1 mmol/1 MgCl2, 0.0005% Triton X-100 and 20 mmol/1 Tris HCl, pH 7.4. The non-specific binding sites were blocked by incubation with 3.5% bovine serum albumin (BSA from Fluka) at 20° C. for at least 1 h. Before the beginning of the test the plates were washed in each case once with 150 mmol/1 NaCl, 1 mmol/1 CaCl2, 1 mmol/1 MgCl2 and 20 mmol/1 Tris HCl, pH 7.4 (buffer A). The thus-coated plates can be stored for at least 2 months in the presence of 0.05% NaN3 (in buffer A) at 4° C. in a humidity chamber without loss of binding activity. Fibrinogen (IMCO, free from fibronectin) was diluted to 1.5 μg/ml in buffer A in the presence of 1% BSA. The wells coated with the receptor were incubated with fibrinogen (100 μl/well) overnight at room temperature in the absence of or in the presence of increasing concentrations of RGDS (as the reference substance, H-Arg-Gly-Asp-Ser-OH) or the compounds to be measured. Non-bound fibrinogen was removed by three-fold washing with buffer A, bound fibrinogen was detected by an enzyme linked immunosorbent assay (ELISA) procedure. Antibodies of rabbits directed against human fibrinogen (Dakopatts, Denmark), diluted in buffer A in the presence of 0.1% BSA, were added at room temperature for 1 h., followed by incubation with biotinylated antibodies directed against rabbit immunoglobulin (Amersham) for 30 min. […] After addition of the peroxidase substrate ABTS (2,2'-azino-bis(3-ethylbenzothiazoline-6-sulphonic acid), Boehringer Mannheim) the enzyme activity was measured with a multichannel photometer (UVmax, Molecular Devices). […]

T1 sequence (P06756 31-889 limits assumed): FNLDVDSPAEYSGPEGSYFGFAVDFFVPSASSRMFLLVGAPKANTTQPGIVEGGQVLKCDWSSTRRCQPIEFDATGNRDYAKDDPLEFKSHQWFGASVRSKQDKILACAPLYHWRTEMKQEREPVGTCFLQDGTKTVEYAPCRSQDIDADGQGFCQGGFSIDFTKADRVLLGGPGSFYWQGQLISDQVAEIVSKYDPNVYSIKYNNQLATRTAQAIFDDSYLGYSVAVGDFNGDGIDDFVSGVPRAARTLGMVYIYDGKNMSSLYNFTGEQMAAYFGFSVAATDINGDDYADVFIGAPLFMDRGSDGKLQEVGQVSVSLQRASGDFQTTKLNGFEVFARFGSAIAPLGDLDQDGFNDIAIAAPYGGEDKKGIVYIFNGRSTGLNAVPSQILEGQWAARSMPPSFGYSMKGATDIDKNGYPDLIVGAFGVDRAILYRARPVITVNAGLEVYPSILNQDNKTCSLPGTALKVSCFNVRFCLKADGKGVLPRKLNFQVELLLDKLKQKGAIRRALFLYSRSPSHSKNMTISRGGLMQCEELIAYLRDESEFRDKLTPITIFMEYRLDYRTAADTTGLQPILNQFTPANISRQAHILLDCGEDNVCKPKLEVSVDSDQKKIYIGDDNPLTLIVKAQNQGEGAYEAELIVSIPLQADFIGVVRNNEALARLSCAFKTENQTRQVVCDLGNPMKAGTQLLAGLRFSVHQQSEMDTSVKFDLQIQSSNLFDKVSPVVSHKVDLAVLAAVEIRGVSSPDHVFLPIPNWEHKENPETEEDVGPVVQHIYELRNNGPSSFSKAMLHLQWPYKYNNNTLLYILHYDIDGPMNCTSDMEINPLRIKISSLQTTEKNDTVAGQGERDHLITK
T1 sequence (P06756 891-1048 limits assumed): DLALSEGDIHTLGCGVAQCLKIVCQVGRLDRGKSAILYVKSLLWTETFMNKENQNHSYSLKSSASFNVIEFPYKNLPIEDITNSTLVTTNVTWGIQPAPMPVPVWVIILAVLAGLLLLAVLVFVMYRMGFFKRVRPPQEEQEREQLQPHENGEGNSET
T1 sequence (P05106 27-788): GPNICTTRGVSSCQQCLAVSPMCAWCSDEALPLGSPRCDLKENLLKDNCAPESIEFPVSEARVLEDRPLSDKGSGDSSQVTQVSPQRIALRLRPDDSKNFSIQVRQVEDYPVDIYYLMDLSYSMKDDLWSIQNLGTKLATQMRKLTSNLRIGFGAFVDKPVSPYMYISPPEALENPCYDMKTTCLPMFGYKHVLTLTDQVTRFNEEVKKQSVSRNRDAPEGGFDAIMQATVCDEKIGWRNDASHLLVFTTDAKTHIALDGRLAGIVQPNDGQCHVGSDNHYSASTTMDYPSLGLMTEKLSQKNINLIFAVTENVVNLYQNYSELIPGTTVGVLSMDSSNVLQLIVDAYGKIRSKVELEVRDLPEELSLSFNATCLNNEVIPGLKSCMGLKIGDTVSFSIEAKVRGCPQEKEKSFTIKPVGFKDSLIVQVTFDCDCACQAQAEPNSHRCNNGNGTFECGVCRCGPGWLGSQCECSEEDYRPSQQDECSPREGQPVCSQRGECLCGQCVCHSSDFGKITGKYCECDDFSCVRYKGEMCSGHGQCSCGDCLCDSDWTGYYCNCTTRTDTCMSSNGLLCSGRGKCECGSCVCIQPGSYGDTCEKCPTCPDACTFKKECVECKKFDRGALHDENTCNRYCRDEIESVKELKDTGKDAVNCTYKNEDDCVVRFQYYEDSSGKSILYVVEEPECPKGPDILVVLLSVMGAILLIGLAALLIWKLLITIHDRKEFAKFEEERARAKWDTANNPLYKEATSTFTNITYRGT

IC50 [nM]	Compound
1.3	O=C(O)COc1ccc(NC(=O)c2csc(NC(=O)NCc3ccccc3)n2)cc1C(=O)O [5-{[2-(3-benzyl-ureido)-thiazole-4-carbonyl]-amino}-2-carboxymethoxy-benzoic acid]
0.2	COc1cc(NC(=O)c2csc(NC(=O)NCc3ccccc3)n2)ccc1OCC(=O)O [(4-{[2-(3-benzyl-ureido)-thiazole-4-carbonyl]-amino}-2-methoxy-phenoxy)-acetic acid]
1	O=C(O)COc1ccc(NC(=O)c2csc(NC(=O)NCc3ccccc3)n2)cc1 [[4-[[2-(3-benzyl-ureido)-thiazole-4-carbonyl]-amino]-phenoxy]-acetic acid]
